According to US20250170107A1, “IMIDAZOPYRIDINE INHIBITORS OF TYROSINE KINASE” (BridGene Biosciences. Inc., priority 2022, published 2025):

Experiments:
KIT = biological target: T1, KIT (Homo sapiens, UniProt P10721); experiment: Caliper mobility shift kinase inhibition assay, recombinant KIT; type: biochemical; settings: recombinant KIT 0.9 nM, ATP 400 μM, incubation 17 hr (Table 2)
T1 construct: purchased BPS 40250

FLT3 = biological target: T2, FLT3 (Homo sapiens, UniProt P36888); experiment: Caliper mobility shift kinase inhibition assay, recombinant FLT3; type: biochemical; settings: recombinant FLT-3 0.1 nM, ATP 95 μM, incubation 3 hr, room temperature
T2 construct: purchased ThermoFisher PV3182
T2 sequence (P36888 27-993): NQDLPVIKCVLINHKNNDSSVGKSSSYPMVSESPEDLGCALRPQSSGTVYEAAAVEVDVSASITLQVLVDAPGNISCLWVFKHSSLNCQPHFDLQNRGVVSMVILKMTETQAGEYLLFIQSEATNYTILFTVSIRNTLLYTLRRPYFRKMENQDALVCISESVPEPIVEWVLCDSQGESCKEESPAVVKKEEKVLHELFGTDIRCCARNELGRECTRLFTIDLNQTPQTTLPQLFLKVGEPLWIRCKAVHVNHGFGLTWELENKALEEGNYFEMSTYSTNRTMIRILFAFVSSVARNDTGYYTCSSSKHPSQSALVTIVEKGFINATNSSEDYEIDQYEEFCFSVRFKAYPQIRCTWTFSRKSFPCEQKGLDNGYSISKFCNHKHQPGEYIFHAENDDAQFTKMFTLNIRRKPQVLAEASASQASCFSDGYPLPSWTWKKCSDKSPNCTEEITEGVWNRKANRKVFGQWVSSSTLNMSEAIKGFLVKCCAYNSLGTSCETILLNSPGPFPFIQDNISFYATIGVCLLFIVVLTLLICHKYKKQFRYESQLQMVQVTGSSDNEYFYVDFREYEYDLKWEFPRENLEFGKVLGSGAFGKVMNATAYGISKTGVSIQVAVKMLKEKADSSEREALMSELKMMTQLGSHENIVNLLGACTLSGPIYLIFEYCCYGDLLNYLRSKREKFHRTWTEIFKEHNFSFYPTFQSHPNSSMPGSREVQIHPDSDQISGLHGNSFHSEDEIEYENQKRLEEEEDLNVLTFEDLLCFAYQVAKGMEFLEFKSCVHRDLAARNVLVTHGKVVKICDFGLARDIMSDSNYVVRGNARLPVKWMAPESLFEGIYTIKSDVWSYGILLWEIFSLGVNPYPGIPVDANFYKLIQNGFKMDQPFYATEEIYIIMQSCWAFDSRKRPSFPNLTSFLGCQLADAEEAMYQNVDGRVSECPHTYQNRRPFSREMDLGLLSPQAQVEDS
Experimental: Compounds' inhibition of recombinant kinases (FLT3, KIT) was measured using Caliper mobility shift assay, which is based on the difference in capillary electrophoresis mobility of a fluorescent-tagged peptide as a result of a phosphorylation by the kinase under study. Reactions were started by the addition of various concentrations of a compound (originally in DMSO solution) to a kinase solution in assay buffer followed by addition of a mixture of ATP and a fluorescent-tagged peptide substrate in assay buffer. Concentrations of the enzyme, ATP and thepeptide were pre-optimized so that 15% substrate conversion to ensure initial velocity measurements. After incubation for 3 hours at room temperature, the kinase reaction was quenched by the addition of a concentrated EDTA solution before analysis on a LabChip EZ Reader II to yield percentage inhibition by comparing to the DMSO control. Table 2 below summarizes the assay conditions for the characterization of the kinase inhibition properties of the disclosed compounds.

MV4-11 = experiment: Cell viability assay (CellTiter-Glo), FLT3 cell-based assay; settings: Homo sapiens, MV4-11 cells, 72 hr at 37° C., 0.1% DMSO
Experimental: Cell viability assay was performed based on the following brief procedures. Cells were plated at the density of 5K/well with volume of 180 μL in 96-well white plate and clear bottom plates. 20 μL of veh. or compound was added at proper concentration to the well. The final volume is 200 μL, with final conc. of DMSO=0.1%, 11 points, triplicates. The cells were then treated at 37° C. in the TC incubator for 72 hr. Equal volume (200 μL) of CellTiter-Glo reagent (Promega) was added to the well and protect from light at room temperature for 15 min. The chemiluminescence was measured with EnSight (Perkin Elmer). GraphPad Prism non-linear regression, Log[inhibitor] response with four parameters were used to calculate GI50.

T1 sequence (P10721 26-976): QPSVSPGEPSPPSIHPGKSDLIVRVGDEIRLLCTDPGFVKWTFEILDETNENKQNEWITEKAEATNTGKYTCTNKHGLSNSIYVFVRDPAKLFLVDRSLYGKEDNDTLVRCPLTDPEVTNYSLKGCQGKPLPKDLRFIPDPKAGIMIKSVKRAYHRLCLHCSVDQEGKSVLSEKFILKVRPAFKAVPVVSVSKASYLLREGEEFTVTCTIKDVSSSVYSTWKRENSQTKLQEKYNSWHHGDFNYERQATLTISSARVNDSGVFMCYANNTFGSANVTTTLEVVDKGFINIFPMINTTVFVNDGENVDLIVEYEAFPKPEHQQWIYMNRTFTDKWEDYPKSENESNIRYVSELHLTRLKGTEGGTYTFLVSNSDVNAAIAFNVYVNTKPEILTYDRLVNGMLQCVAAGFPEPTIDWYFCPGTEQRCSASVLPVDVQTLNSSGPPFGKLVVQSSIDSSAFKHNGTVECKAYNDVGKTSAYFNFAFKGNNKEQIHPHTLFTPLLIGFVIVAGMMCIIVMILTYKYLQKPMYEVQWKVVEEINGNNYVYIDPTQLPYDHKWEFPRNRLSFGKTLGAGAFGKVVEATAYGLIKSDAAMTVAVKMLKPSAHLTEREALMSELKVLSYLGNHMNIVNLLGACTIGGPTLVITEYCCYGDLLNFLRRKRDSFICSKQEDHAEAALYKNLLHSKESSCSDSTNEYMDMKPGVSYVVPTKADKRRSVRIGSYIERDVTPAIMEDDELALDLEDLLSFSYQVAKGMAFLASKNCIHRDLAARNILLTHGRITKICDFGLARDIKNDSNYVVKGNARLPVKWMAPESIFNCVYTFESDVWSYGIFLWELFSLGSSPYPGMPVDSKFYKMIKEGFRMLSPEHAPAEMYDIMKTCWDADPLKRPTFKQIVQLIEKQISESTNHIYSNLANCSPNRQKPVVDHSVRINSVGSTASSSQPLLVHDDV

IC50 (KIT) [nM]	IC50 (FLT3) [nM]	GI50 (MV4-11) [nM]	SMILES
10 to 100	1 to 10	–	C=C(F)C(=O)N1C[C@H](O)C[C@H]1C(=O)NCCn1cnc2cnc(Nc3ncc(-c4ncccc4F)s3)cc21 [Example 19, (2S,4R)-1-(2-fluoroprop-2-enoyl)-N-[2-[6-[[5-(3-fluoro-2-pyridyl)thiazol-2-yl]amino]imidazo[4,5-c]pyridin-1-yl]ethyl]-4-hydroxy-pyrrolidine-2-carboxamide]
< 1	< 1	< 10	C=CC(=O)N1CCC[C@H]1C(=O)NCCn1cnc2cnc(Nc3ncc(-c4ccc(F)cc4)s3)cc21 [Example 5]
< 1	< 1	–	CN(C)C/C=C/C(=O)N1CCOC[C@H]1C(=O)NCCn1cnc2cnc(Nc3ncc(-c4ncccc4F)s3)cc21 [Example 17, (3S)-4-[(E)-4-(dimethylamino)but-2-enoyl]-N-[2-[6-[[5-(3-fluoro-2-pyridyl)thiazol-2-yl]amino]imidazo[4,5-c]pyridin-1-yl]ethyl]morpholine-3-carboxamide]
< 1	< 1	–	C=CC(=O)N1CC[C@H]1C(=O)NCCn1cnc2cnc(Nc3ncc(-c4ncccc4F)s3)cc21 [Example 7, (2S)-N-[2-[6-[[5-(3-fluoro-2-pyridyl)thiazol-2-yl]amino]imidazo [4,5-c]pyridin-1-yl]ethyl]-1-prop-2-enoyl-azetidine-2-carboxamide]
1 to 10	1 to 10	< 10	C/C=C\C(=O)N1CCC[C@H]1C(=O)NCCn1cnc2cnc(Nc3ncc(-c4ccc(F)cc4)s3)cc21 [Example 2, (2S)-1-[(Z)-but-2-enoyl]-N-[2-[6-[[5-(4-fluorophenyl)thiazol-2-yl]amino]imidazo[4,5-c]pyridin-1-yl]ethyl]pyrrolidine-2-carboxamide]
< 1	< 1	10 to 100	C=CC(=O)N1C[C@H](O)C[C@H]1C(=O)NCCn1cnc2cnc(Nc3ncc(-c4ccc(F)cc4)s3)cc21 [Example 13, (2S,4R)-N-[2-[6-[[5-(4-fluorophenyl)thiazol-2-yl]amino]imidazo[4,5-c]pyridin-1-yl]ethyl]-4-hydroxy-1-prop-2-enoylpyrrolidine-2-carboxamide]
< 1	< 1	< 10	C=CC(=O)N1CCC[C@H]1C(=O)NCCn1cnc2cnc(Nc3ncc(-c4ncccc4F)s3)cc21 [Example 9, (2S)-N-[2-[6-[[5-(3-fluoro-2-pyridyl)thiazol-2-yl]amino]imidazo[4,5-c]pyridin-1-yl]ethyl]-1-prop-2-enoyl-pyrrolidine-2-carboxamide]
< 1	< 1	–	CN(C)C/C=C/C(=O)N1C[C@H](O)C[C@H]1C(=O)NCCn1cnc2cnc(Nc3ncc(-c4ncccc4F)s3)cc21 [Example 20, (2S,4R)-1-[(E)-4-(dimethylamino)but-2-enoyl]-N-[2-[6-[[5-(3-fluoro-2-pyridyl)thiazol-2-yl]amino]imidazo[4,5-c]pyridin-1-yl]ethyl]-4-hydroxy-pyrrolidine-2-carboxamide]
10 to 100	< 1	< 10	C=CC(=O)N1CCOC[C@H]1C(=O)NCCn1cnc2cnc(Nc3ncc(-c4ncccc4F)s3)cc21 [Example 12, (3S)-N-[2-[6-[[5-(3-fluoro-2-pyridyl)thiazol-2-yl]amino]imidazo[4,5-c]pyridin-1-yl]ethyl]-4-prop-2-enoyl-morpholine-3-carboxamide]
1 to 10	< 1	10 to 100	C=CC(=O)N1CCOC[C@H]1C(=O)NCCn1cnc2cnc(Nc3ncc(-c4ccncc4)s3)cc21 [Example 1, (3S)-4-prop-2-enoyl-N-[2-[6-[[5-(4-pyridyl)thiazol-2-yl]amino]imidazo[4,5-c]pyridin-1-yl]ethyl]morpholine-3-carboxamide]
< 1	< 1	< 10	C=CC(=O)N1C[C@@H](O)C[C@H]1C(=O)NCCn1cnc2cnc(Nc3ncc(-c4ccc(F)cc4)s3)cc21 [Example 14, (2S,4S)-N-[2-[6-[[5-(4-fluorophenyl)thiazol-2-yl]amino]imidazo[4,5-c]pyridin-1-yl]ethyl]-4-hydroxy-1-prop-2-enoylpyrrolidine-2-carboxamide]
< 1	< 1	10 to 100	C=CC(=O)N1CC[C@H](O)[C@H]1C(=O)NCCn1cnc2cnc(Nc3ncc(-c4ncccc4F)s3)cc21 [Example 24, (2S,3S)-N-[2-[6-[[5-(3-fluoro-2-pyridyl)thiazol-2-yl]amino]imidazo[4,5-c]pyridin-1-yl]ethyl]-3-hydroxy-1-prop-2-enoyl-pyrrolidine-2-carboxamide]
1 to 10	1 to 10	< 10	C=C(F)C(=O)N1CCC[C@H]1C(=O)NCCn1cnc2cnc(Nc3ncc(-c4ccc(F)cc4)s3)cc21 [Example 4]
< 1	< 1	10 to 100	CN(C)C/C=C/C(=O)N1CC[C@H](O)[C@H]1C(=O)NCCn1cnc2cnc(Nc3ncc(-c4ncccc4F)s3)cc21 [Example 26, (2S,3S)-1-[(E)-4-(dimethylamino)but-2-enoyl]-N-[2-[6-[[5-(3-fluoro-2-pyridyl)thiazol-2-yl]amino]imidazo[4,5-c]pyridin-1-yl]ethyl]-3-hydroxy-pyrrolidine-2-carboxamide]
100 to 1000	1 to 10	10 to 100	C/C=C\C(=O)N1CCC[C@H]1C(=O)NCCn1cnc2cnc(Nc3ncc(-c4ncccc4F)s3)cc21 [Example 11, (2S)-1-[(Z)-but-2-enoyl]-N-[2-[6-[[5-(3-fluoro-2-pyridyl)thiazol-2-yl]amino]imidazo[4,5-c]pyridin-1-yl]ethyl]pyrrolidine-2-carboxamide]
< 1	< 1	< 10	C=CC(=O)N1CC[C@H](O)[C@H]1C(=O)NCCn1cnc2cnc(Nc3ncc(-c4ccc(F)cc4)s3)cc21 [Example 15, (2S,3S)-N-[2-[6-[[5-(4-fluorophenyl)thiazol-2-yl]amino]imidazo[4,5-c]72yridine-1-yl]ethyl]-3-hydroxy-1-prop-2-enoylpyrrolidine-2-carboxamide]
–	–	< 10	C=CC(=O)N1CCOC[C@H]1C(=O)NCCn1cnc2cnc(Nc3ncc(-c4ccc(F)cc4)s3)cc21 [Example 6, (3S)-N-[2-[6-[[5-(4-fluorophenyl)thiazol-2-yl]amino]imidazo[4,5-c]pyridin-1-yl]ethyl]-4-prop-2-enoyl-morpholine-3-carboxamide]
1 to 10	1 to 10	–	C=C(F)C(=O)N1CCOC[C@H]1C(=O)NCCn1cnc2cnc(Nc3ncc(-c4ncccc4F)s3)cc21 [Example 16, (3S)-4-(2-fluoroprop-2-enoyl)-N-[2-[6-[[5-(3-fluoro-2-pyridyl)thiazol-2-yl]amino]imidazo[4,5-c]pyridin-1-yl]ethyl]morpholine-3-carboxamide]
1 to 10	< 1	–	C=CC(=O)N1C[C@H](O)C[C@H]1C(=O)NCCn1cnc2cnc(Nc3ncc(-c4ncccc4F)s3)cc21 [Example 18, (2S,4R)-N-[2-[6-[[5-(3-fluoro-2-pyridyl)thiazol-2-yl]amino]imidazo[4,5-c]pyridin-1-yl]ethyl]-4-hydroxy-1-prop-2-enoyl-pyrrolidine-2-carboxamide]
